Results on 16 molecules are retold here after patent US6458781B1, “Substituted diarylalkyl amides as calcium channel antagonists” (priority 1998, dated 2002).

Series [1] deals with T1, N-type calcium channels in IMR-32 cells (Homo sapiens, UniProt Q00975).
T1 construct: host or cells: IMR-32 cells differentiated with dibutyryl cAMP and bromodeoxyuridine
Nature of the series: N-type Ca2+ channel blocking potency in IMR-32 cells using Indo-1. It counts as cell-based. The conditions noted are these: for inhibition at 1 µM / inhibition at 10 µM: IMR-32, IMR-32 cells; for inhibition at 1 µM: read-out: IMR32 % blockage at 1 μM; for inhibition at 10 µM: read-out: IMR32 % blockage at 10 μM; for IC50: IMR-32 cells. The procedure:
Measurement of N-type Ca^2+ Channel Blocking Potencies of Compounds in IMR-32 Cells Using the Fluorescent Ca^2+ Indicator Indo-1
IMR-32 cells are a human tumoral cell line of neural origin. […] Calcium flux into these cells may be induced by stimulation with elevated potassium concentrations. The L-channel component of calcium flux may be blocked by adding 5 μM nitrendipine. The remaining component of calcium entry into the IMR-32 cells is due to calcium flux through N-type calcium channels. Intracellular calcium concentrations are measured using the fluorescent calcium indicator Indo-1. The effect of drug concentration on calcium uptake is studied.
The IMR-32 cell line was obtained from the American Type Culture Collection (Rockville, Md.). Cells were grown in Eagle's Minimum Essential Medium with Earle's salts supplemented with 10% fetal bovine serum, 2 mM L-Gln and antibiotic/antimycotic mixture (Gibco). At approximately 80% confluency, differentiation was induced by the addition of 1 mM dibutyryl cAMP and 2.5 μM bromodeoxyuridine to the medium. After 7 to 13 days of differentiation, cells were detached using 0.5 mM EDTA and loaded with 5 μM Indo-1 acetoxymethyl ester (Molecular Probes, Eugene, Oreg.) at 30° C. for 45 minutes. Loaded cells were washed twice, resuspended (˜10^7 cells/mL) in assay buffer (10 mM HEPES/Tris pH 7.4 in Hank's Balanced Salt Solution without bicarbonate or phenol red containing 0.5% bovine serum albumin) and kept on ice until use. Fluorescence measurements were carried out in a Photon Technology International (PTI, South Brunswick, N.J.) Model RF-F3004 spectrofluorometer with dual emission monochromators using excitation at 350 nm and emission at 400 and 490 nm. The instrument was equipped with a thermostated cuvette holder with stirring capabilities as well as with a computer-controlled pump which allowed for reagent addition during measurement. Instrument control and data collection was done by PTI's OSCAR software running on an IBM compatible computer. Different concentrations of the test compounds (60 μL in dimethyl sulfoxide) were added to 5.94 mL of assay buffer containing approximately 3×10^6 loaded cells, and 5 μM Nitrendipine (in 30 μL EtOH) to block L-type Ca^2+ channels. Samples were incubated for 10 minutes at 30° C. and the aliquot into three 10×10 mm disposable acrylic cuvettes. Emission signals at 400 and 490 nm were acquired from each cuvette at 30° C. for 50 seconds. At 20 seconds after the start of reading, cells were depolarized by the addition of 160 μL of stimulation solution (1 M KCl, 68 mM CaCl2) to the cuvette via the computer-controlled pump. Ratio of dual emission signals (400/490 nm), which is proportional to intracellular Ca^2+ concentration, was plotted against time, and the difference between maximal response after stimulation and basal value (before stimulation) was determined. Values obtained in this way were plotted as a function of drug concentration. IC50 values of test compounds were calculated by fitting a four-parameter logistic function to the data using the least squares method.

For series [2], the target named is T2, L-type calcium channels in A10 cells (Rattus norvegicus, UniProt P22002).
T2 construct: which endogenously expresses L-type calcium channels; host or cells: A10 rat embryonic thoracic aorta smooth muscle cells
Nature of the series: L-type Ca2+ channel blocking potency in A10 cells (FLIPR). The conditions noted are these: read-out: FLPA10 IC50. It counts as cell-based. The procedure: Measurement of L-type Ca^2+ Channel Blocking Potencies of Compounds in A10 Cells
Calcium flux through voltage-sensitive calcium channels was assessed by time-resolved monitoring of the fluorescence of pre-loaded calcium-sensitive dyes using FLIPR, a fluorescent image plate reader (Molecular Devices Co.). The A10 smooth muscle cell line derived from embryonic thoracic aorta of the DBIX rat (ATCC, CRL-1476) which endogenously expresses L-type calcium channels. The growth media for A10 cells was Ham's F12/DME high glucose (Irvine Scientific, 9052), supplemented with 20% fetal bovine serum (HyClone Labs, A-1115-L), and 1% each of L-glutamine and antibiotic-antimycotic (same source as above).
Cells were grown to confluency and replated on black-sided 96-well plates (Costar, 3603) for use in FLIPR. Two days after replating, growth media was removed and cells were loaded at 37° C. with 100 μL media containing 1 μM Oregon Green 488 Bapta-1 dye (Molecular Probes, O-6807) for 1 to 3 hours. The dye-containing media was then washed away with buffer (composition in mM: 1.25 CaCl2, 1.2 MgSO4, 11 glucose, 10 HEPES, 3.0 KCl, 137.0 NaCl, pH 7.4 with Tris base) in a Denley Cellwash (Labsystems, CW018B). The residual buffer volume was adjusted to 50 μL. A 5 minute drug-pre-incubation period at 35° C. was initiated when 50 μL of drug-containing buffer was pipetted into the cell plate with the 96-well pipettor integrated in the FLIPR apparatus. Fluorescent counts were monitored at 20 second intervals for 360 seconds, beginning 60 seconds prior to the delivery of drug-containing buffer. Following drug addition, 100 μL aliquots of a high K^+, depolarizing stimulus (composition in mM: 1.25 CaCl2, 1.2 MgSO4, 11 glucose, 10 HEPES, 140.0 KCl, pH 7.4 with Tris base) were added to each well, and fluorescence was monitored at 1 second intervals for 120 seconds beginning 10 seconds prior to the stimulus addition. CCD camera exposure time was 0.4 seconds, laser excitation was at 488 nm with a power of 0.2-0.5W, and a 510 to 560 nm bandpass interference filter preceded the camera.
Data was analyzed as a summation of fluorescent counts above basal during the stimulation period (an approximation of area under the curve), after normalizing the data with a spatial uniformity correction (for variations in laser illumination and cell density) and a negative control correction (zero calcium increase defined as the fluorescence reading in the presence of saturating pharmacologic block of the respective calcium channel). Drug effects were expressed as percent inhibition of fluorescence from an average of 8 K^+-stimulated wells which were pre-treated in the drug incubation period with buffer only. In the A10 cells, the pharmacologic agent used to define zero calcium influx was nitrendipine (RBI, N-144) at a final concentration of 1.0×10^−6 M.

[3] abbreviates: 5 μM nitrendipine present, read-out: IMR32 IC50.
Setting [4] is: estimated from two data points, read-out: IMR32 IC50 (estimated IC50 values based on two data points).

SMILES strings stand for the structures. Counter-ions that a name gives are not always drawn. Like-named read-outs stand apart in the source and are kept apart here.

T1 sequence (Q00975 whole entry): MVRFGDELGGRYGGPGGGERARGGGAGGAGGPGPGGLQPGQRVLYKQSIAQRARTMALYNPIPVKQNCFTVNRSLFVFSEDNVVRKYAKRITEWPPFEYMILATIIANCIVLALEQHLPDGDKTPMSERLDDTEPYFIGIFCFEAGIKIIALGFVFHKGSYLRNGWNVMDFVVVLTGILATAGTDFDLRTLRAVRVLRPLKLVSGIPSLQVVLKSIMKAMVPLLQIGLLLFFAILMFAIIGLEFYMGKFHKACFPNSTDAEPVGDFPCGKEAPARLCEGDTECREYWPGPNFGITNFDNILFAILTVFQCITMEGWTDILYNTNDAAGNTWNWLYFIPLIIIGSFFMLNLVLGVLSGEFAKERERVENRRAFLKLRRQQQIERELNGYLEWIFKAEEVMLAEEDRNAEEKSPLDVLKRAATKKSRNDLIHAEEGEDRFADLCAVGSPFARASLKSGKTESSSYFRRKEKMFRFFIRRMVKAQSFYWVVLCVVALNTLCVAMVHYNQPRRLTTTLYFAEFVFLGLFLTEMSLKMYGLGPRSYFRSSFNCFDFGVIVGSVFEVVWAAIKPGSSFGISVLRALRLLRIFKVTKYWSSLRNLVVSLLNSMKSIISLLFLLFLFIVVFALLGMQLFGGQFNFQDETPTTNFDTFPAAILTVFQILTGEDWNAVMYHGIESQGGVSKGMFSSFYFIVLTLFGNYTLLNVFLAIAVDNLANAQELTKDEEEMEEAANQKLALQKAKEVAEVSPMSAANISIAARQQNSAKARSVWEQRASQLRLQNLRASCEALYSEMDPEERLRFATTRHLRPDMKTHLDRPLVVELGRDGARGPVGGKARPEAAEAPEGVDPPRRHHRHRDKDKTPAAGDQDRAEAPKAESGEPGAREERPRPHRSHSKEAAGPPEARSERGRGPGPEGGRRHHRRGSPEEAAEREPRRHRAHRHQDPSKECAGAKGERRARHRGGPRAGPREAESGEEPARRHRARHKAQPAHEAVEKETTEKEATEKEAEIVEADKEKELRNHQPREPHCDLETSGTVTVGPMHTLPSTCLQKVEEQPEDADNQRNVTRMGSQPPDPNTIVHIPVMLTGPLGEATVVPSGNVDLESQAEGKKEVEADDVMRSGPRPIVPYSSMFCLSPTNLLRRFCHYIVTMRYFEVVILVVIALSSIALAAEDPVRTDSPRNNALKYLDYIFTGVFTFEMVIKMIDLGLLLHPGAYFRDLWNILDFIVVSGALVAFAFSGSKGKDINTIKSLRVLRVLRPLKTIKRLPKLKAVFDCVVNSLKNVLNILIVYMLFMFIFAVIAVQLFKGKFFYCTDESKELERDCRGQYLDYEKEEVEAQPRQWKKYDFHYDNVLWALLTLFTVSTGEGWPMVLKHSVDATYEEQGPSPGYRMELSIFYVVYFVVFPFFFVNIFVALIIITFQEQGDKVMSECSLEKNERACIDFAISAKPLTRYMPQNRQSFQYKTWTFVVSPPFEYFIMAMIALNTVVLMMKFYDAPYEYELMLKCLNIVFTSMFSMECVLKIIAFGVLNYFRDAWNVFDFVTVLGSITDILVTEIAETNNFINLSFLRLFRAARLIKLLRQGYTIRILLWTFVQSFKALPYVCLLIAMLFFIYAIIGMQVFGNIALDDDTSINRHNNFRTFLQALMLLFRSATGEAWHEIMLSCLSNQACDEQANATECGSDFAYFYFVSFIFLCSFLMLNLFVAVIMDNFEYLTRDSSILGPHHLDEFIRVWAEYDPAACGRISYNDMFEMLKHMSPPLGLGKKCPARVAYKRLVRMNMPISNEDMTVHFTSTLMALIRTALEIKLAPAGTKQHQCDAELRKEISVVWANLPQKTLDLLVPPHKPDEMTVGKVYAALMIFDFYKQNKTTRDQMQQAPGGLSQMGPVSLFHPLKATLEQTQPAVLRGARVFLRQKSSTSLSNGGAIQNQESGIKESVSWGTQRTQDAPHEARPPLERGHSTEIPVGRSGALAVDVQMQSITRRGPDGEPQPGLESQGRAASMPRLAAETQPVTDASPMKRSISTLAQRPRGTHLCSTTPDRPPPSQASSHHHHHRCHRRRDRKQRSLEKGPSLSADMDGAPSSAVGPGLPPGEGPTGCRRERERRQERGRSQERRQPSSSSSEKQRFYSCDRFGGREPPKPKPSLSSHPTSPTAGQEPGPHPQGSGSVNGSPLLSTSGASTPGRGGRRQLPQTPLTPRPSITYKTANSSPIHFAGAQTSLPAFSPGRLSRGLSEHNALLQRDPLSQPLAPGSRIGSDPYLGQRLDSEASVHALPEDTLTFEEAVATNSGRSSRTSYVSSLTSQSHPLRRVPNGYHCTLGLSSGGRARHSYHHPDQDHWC
T1 sequence (P54289 25-956 partner limits assumed): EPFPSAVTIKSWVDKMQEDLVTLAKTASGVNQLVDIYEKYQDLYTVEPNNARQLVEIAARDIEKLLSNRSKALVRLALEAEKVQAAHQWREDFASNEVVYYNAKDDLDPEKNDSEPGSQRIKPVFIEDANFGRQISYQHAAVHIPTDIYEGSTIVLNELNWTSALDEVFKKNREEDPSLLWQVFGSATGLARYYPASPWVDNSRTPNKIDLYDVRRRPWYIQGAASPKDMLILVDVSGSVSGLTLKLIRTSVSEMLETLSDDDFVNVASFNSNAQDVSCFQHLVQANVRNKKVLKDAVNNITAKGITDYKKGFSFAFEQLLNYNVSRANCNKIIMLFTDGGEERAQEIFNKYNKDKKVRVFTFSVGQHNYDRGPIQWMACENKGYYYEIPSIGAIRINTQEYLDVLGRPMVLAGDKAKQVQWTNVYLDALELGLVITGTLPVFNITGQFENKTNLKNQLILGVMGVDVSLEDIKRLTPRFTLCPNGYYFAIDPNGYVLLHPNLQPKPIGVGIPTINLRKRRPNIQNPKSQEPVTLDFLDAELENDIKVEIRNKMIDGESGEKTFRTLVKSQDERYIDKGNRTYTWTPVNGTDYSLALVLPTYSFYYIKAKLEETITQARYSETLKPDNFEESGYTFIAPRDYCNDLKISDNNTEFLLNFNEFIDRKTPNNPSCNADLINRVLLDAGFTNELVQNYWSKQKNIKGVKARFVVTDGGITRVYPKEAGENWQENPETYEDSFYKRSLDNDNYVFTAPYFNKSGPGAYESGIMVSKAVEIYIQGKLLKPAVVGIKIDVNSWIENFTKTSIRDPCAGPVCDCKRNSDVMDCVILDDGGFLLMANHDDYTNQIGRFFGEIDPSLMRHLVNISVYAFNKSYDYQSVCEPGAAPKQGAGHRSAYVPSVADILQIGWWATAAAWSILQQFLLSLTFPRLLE
T1 sequence (P54289 957-1103 partner limits assumed): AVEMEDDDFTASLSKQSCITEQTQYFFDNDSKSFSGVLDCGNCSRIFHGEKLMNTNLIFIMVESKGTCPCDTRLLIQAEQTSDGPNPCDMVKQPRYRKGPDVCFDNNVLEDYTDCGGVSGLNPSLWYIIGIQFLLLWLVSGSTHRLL
T1 sequence (Q02641 whole entry partner): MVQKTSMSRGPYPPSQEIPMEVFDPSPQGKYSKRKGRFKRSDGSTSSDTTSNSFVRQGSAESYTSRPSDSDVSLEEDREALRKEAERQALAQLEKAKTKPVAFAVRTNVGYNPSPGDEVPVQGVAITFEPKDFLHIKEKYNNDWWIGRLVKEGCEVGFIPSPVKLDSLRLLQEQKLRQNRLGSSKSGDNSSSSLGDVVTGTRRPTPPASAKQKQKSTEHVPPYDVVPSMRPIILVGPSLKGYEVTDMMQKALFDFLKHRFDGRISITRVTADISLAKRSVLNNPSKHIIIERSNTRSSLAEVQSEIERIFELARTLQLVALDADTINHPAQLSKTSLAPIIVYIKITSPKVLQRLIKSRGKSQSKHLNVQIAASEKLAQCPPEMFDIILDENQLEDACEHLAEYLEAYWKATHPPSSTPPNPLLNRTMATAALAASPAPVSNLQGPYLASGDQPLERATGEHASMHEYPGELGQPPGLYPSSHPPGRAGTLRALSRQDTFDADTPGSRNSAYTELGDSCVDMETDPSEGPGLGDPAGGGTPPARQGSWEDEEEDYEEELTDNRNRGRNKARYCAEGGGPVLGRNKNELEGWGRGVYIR

Regarding `CC(C)C[C@@H](C(=O)NCCCC(c1ccc(F)cc1)c1ccc(F)cc1)N(C)C(C)C` (as salt: hydrochloride) [Example 68, (S)-2-(Isopropyl-methyl-amino)-4-methyl-pentanoic acid [4,4-bis-(4-fluoro-phenyl)-butyl]-amide], the melting point fell in the range of 155 to 156 °C.
Still for that read-out and setting: the same measure for `CC(C)[C@@H](C(=O)NCCCC(c1ccc(F)cc1)c1ccc(F)cc1)N(C)C1CCCCC1` (as salt: hydrochloride) [Example 69, (S)-N-[4,4-Bis-(4-fluoro-phenyl)-butyl]-2-(cyclohexyl-methyl-amino)-3-methyl-butyramide]: 82 to 86 °C.
The molecule `CC(C)[C@H](NC1CCCCC1)C(=O)NCCCC(c1ccc(F)cc1)c1ccc(F)cc1` (as salt: hydrochloride) [Example 70, (S)-N-[4,4-Bis-(4-fluoro-phenyl)-butyl]-2-cyclohexylamino-3-methyl-butyramide] gave a melting point of 49 to 53 °C.
Same read-out and setting: the same measure for `CN[C@H](C(=O)NCCCC(c1ccc(F)cc1)c1ccc(F)cc1)C(C)C` (as salt: hydrochloride) [Example 73, (S)-3-Methyl-2-methylamino-butanoic acid [4,4-bis-(4-fluorophenyl)-butyl]-amide monohydrochloride]: 85 to 90 °C.
For `CC(C)CC(NC(=O)N1CCN(C)CC1)C(=O)N1CCN(C(c2ccc(F)cc2)c2ccc(F)cc2)CC1` (stereo in doubt) [Example 47, (S)-4-Methyl-piperazine-1-carboxylic acid (1-{4-[bis-(4-fluoro-phenyl)-methyl]-piperazine-1-carbonyl}-3-methyl-butyl)-amide], the melting point lay in the range of 65 to 78 °C. In addition, in series [1], the inhibition at 1 µM is 13% and the inhibition at 10 µM is 54%. In series [2], the IC50 was found to be 1.7 µM.
`CC(C)C[C@H](NC(=O)N1CCCCCC1)C(=O)NCC(c1ccccc1)c1ccccc1` [Example 4, (S)-Azepane-1-carboxylic acid [1-(2,2-diphenyl-ethylcarbamoyl)-3-methyl-butyl]-amide] displayed a melting point of 194 to 195 °C. Also, the IC50 in series [1] (setting [3]) is 3.3 µM.
Molecule `CC(C)C[C@H](NC(=O)N1CCCCCC1)C(=O)NCCC(c1ccccc1)c1ccccc1` [Example 5, (S)-Azepane-1-carboxylic acid [1-(3,3-diphenyl-propylcarbamoyl)-3-methyl-butyl]-amide] had a melting point of 144 to 145 °C. Besides, the IC50 in series [1] (setting [3]) was 1.8 µM.
The matching figures for `CC(C)C[C@H](NC(=O)OC(C)(C)C)C(=O)NCCCC(c1ccc(F)cc1)c1ccc(F)cc1` [Example 6, (S)-{1-[4,4-Bis-(4-fluoro-phenyl)-butylcarbamoyl]-3-methyl-butyl}-carbamic acid tert-butyl ester]: 50 to 55 °C and 1.3 µM.
`CC(C)C[C@H](NC(=O)N1CCCCCC1)C(=O)NCCCC1(c2ccccc2)C(=O)N(C)c2ccccc21` (stereo partly drawn) [Example 10, (S)-Azepane-1-carboxylic acid {3-methyl-1-[3-(1-methyl-2-oxo-3-phenyl-2,3-dihydro-1H-indol-3-yl)-propylcarbamoyl]-butyl}-amide] gave a melting point of 181 to 182 °C. Further, the IC50 in series [1] (setting [3]) was found to be 2.6 µM.
Consider `CC(C)C[C@H](NC(=O)N1CCCCCC1)C(=O)NCc1nn(-c2ccccc2)c2ccccc12` [Example 11, (S)-Azepane-1-carboxylic acid {3-methyl-1-[(1-phenyl-1H-indazol-3-ylmethyl)-carbamoyl]-butyl}-amide], for which the melting point is 135 to 136 °C. Moreover, the IC50 in series [1] (setting [3]) turned out to be 4 µM.
For `CCC(C)[C@H](NC(=O)N1CCCCCC1)C(=O)NCCCC(c1ccc(F)cc1)c1ccc(F)cc1` (stereo partly drawn) [Example 16, (S)-Azepane-1-carboxylic acid {1-[4,4-bis-(4-fluoro-phenyl)-butylcarbamoyl]-2-methyl-butyl}-amide], the melting point lay within 50 to 60 °C. The half-inhibitory concentration (IC50) in series [1] (setting [4]) was 0.61 µM. Besides, in series [2], the IC50 is 0.27 µM.
Consider `CC(C)C[C@H](NC(=O)N1CCN(c2ccccc2)CC1)C(=O)NCCCC(c1ccc(F)cc1)c1ccc(F)cc1` [Example 17, (S)-4-Phenyl-piperazine-1-carboxylic acid {1-[4,4-bis-(4-fluoro-phenyl)-butylcarbamoyl]-3-methyl-butyl}-amide], for which the melting point is 138 to 141 °C. Also, in series [1] (setting [4]), the IC50 was 2 µM. In series [2], the IC50 came out at 0.074 µM.
`CC(C)C[C@@H](C(=O)NCCCC(c1ccc(F)cc1)c1ccc(F)cc1)N1CCCCC1` [Example 22, (S)-4-Methyl-2-piperidin-1-yl-pentanoic acid [4,4-bis-(4-fluoro-phenyl)-butyl]-amide] returned a melting point of 52 to 70 °C. Also, in series [1], the inhibition at 1 µM is 49% and the inhibition at 10 µM came to 94%. In addition, in series [2], the IC50 was 0.16 µM.
Take `CC(C)C[C@@H](C(=O)NCCC(c1ccccc1)c1ccccc1)N1CCCCC1.Cl` [Example 24, (S)-4-Methyl-2-piperidin-1-yl-pentanoic acid (3,3-diphenyl-propyl)-amide monohydrochloride]: the melting point lay in the range of 58 to 65 °C. Further, in series [1], the inhibition at 1 µM was found to be 35% and the inhibition at 10 µM was determined as 89%. Besides, the IC50 in series [2] turned out to be 1.5 µM.
For the molecule `CC(C)C[C@H](NCc1ccc(C(C)(C)C)cc1)C(=O)N1CCN(C(c2ccc(F)cc2)c2ccc(F)cc2)CC1` [Example 58, (S)-1-{4-[Bis-(4-fluoro-phenyl)-methyl]-piperazin-1-yl}-2-(4-tert-butyl-benzylamino)-4-methyl-pentan-1-one], the melting point fell in the range of 57 to 62 °C. Further, the IC50 in series [2] is more than 3 µM.
As for `CC(C)C[C@H](NCc1ccc(OC(C)(C)C)cc1)C(=O)N1CCN(C(c2ccc(F)cc2)c2ccc(F)cc2)CC1` [Example 64, (S)-1-{4-[Bis-(4-fluoro-phenyl)-methyl]-piperazin-1-yl}-2-(4-tert-butoxy-benzylamino)-4-methyl-pentan-1-one], the melting point lay in the range of 56 to 61 °C. In series [2], the concentration for half-maximal inhibition (IC50) worked out at 0.089 µM.
